Laboratory results from patent US20260184687A1, “DIHYDROINDENE DERIVATIVES AS MALT1 INHIBITORS” (C4X Discovery Limited, priority 2022, published 2026).

Tests used:
[1] = target: T1, FL hMALT1 enzyme (Homo sapiens, UniProt Q9UDY8); test: biochemical;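 further: Cell-free protease assay: enzyme preincubated with compound 30 min at room temperature, then cleavage of fluorogenic Ac-LVSR-AMC substrate (100 µM) tracked by fluorescence (ex 360/em 460 nm)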
T1 sequence (Q9UDY8 1-824): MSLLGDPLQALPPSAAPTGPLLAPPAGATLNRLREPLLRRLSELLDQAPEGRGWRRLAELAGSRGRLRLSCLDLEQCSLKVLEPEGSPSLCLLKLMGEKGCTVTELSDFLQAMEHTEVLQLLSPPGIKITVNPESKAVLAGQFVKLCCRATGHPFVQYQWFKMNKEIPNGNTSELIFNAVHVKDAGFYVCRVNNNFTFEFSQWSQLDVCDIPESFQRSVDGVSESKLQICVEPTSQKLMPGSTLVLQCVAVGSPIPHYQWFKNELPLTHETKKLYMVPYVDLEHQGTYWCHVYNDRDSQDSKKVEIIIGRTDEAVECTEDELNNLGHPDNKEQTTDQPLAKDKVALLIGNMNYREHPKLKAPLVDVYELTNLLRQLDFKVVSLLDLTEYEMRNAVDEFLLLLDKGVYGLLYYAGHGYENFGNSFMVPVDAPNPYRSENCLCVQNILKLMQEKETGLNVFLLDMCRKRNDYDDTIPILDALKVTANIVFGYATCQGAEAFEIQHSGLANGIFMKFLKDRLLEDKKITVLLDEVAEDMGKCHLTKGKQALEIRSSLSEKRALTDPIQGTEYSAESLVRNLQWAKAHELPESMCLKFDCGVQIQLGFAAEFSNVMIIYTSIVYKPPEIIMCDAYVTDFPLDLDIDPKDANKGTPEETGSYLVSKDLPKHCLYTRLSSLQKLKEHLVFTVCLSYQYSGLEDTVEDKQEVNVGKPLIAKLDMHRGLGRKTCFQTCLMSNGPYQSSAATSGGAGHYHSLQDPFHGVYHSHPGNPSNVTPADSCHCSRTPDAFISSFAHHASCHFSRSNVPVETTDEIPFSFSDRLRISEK

[2] = test system: IL-2 release from stimulated Jurkat cells; test: Human IL-2 Release Phenotypic Assay (Assay 3); type: cell-based; details: Jurkat cells (clone E6-1), 200 ng/mL PMA + 300 ng/mL ionomycin, IL-2 by ELISA
Procedure: This assay measured the inhibition by MALT1 inhibitors of the IL-2 release from stimulated Jurkat cells, a human immortalized T lymphocyte cell line. IL-2 production from Jurkat cells is regulated by activation of NFκB signalling, which is in turn regulated by MALT1 protease activity.
Jurkat cells (clone E6-1, ATCC) were cultured in RPMI1640 supplemented with 10% (v/v) FBS and 1% (v/v) penicillin/streptomycin (100× liquid stocks). Cells were seeded in 96-well white tissue culture-treated plates (Perkin Elmer) at 50 000 cells/well and incubated overnight at 37° C., 5% CO2. Test compounds in DMSO at half-log dilutions were added to the cells and incubated for 30 mins. Final DMSO concentration was 0.5%. Cells were then stimulated with 200 ng/mL PMA+300 ng/mL ionomycin and incubated for 48 hours. […] IC50 values were calculated using GraphPad Prism using 4-parameter non-linear regression curve fit.

Row | Compound | IC50 [1] [nM] | IC50 ([2]; 48 hours) [nM] | IC50 ([2]; Homo sapiens, Jurkat, 48 h) [nM]
1 | CN(C(=O)C1CNC(=O)O1)[C@@H](c1ccc(N[C@@H]2Cc3ccccc3C2(C)C)cn1)C(F)(F)F (single isomer, unassigned) [Example 111] | 52 | 650 | –
2 | CN(C(=O)[C@H]1C[C@H](N(C)C)C1)[C@@H](c1ccc(NC2Cc3ccccc3C2(C)C)cn1)C(F)(F)F (single isomer, unassigned) [Example 112] | 230 | – | 430
3 | CN(C(=O)[C@H]1C[C@H](N(C)C)C1)[C@@H](c1ccc(NC2Cc3ccccc3C2(C)C)cn1)C(F)(F)F (single isomer, unassigned) [Example 113] | 67 | 490 | –
4 | CN(C(=O)[C@H]1C[C@H](N(C)C)C1)[C@@H](c1ccc(NC2Cc3ccccc3C2(C)C)nc1)C(F)(F)F (single isomer, unassigned) [Example 114] | 190 | – | 1020
5 | CN(C(=O)[C@H]1C[C@H](N(C)C)C1)[C@@H](c1ccc(NC2Cc3ccccc3C2(C)C)nc1)C(F)(F)F (single isomer, unassigned) [Example 115] | 240 | 510 | –
6 | CN(C(=O)C1CCNC(=O)C1)[C@@H](c1ccc(NC2Cc3ccccc3C2(C)C)cn1)C(F)(F)F (single isomer, unassigned) [Example 116] | 68 | 510 | –
7 | CN(C(=O)C1CCNC(=O)C1)[C@@H](c1ccc(NC2Cc3ccccc3C2(C)C)cn1)C(F)(F)F (single isomer, unassigned) [Example 117] | 240 | 2060 | –
8 | CN(C(=O)C1CCNC(=O)C1)[C@@H](c1ccc(NC2Cc3ccccc3C2(C)C)cn1)C(F)(F)F (single isomer, unassigned) [Example 118] | 49 | 280 | –
9 | CN(C(=O)C1CCNC(=O)C1)[C@@H](c1ccc(NC2Cc3ccccc3C2(C)C)cn1)C(F)(F)F (single isomer, unassigned) [Example 119] | 150 | 1720 | –
10 | CN(C(=O)C1CCCNC1)[C@@H](c1ccc(NC2Cc3ccccc3C2(C)C)cn1)C(F)(F)F (single isomer, unassigned) [Example 124] | 190 | 1290 | –
11 | CN(C(=O)C1CCCNC1)[C@@H](c1ccc(NC2Cc3ccccc3C2(C)C)cn1)C(F)(F)F (single isomer, unassigned) [Example 125] | 62 | 330 | –
12 | CN(C(=O)C1CCCNC1)[C@@H](c1ccc(NC2Cc3ccccc3C2(C)C)cn1)C(F)(F)F (single isomer, unassigned) [Example 126] | 120 | 700 | –
13 | CN1CCCC(C(=O)N(C)[C@@H](c2ccc(NC3Cc4ccccc4C3(C)C)cn2)C(F)(F)F)C1 (single isomer, unassigned) [Example 129] | 210 | – | 1800
14 | CN1CCCC(C(=O)N(C)[C@@H](c2ccc(NC3Cc4ccccc4C3(C)C)cn2)C(F)(F)F)C1 (single isomer, unassigned) [Example 130] | 120 | 1080 | –
15 | CN1CCC(C(=O)N(C)[C@@H](c2ccc(NC3Cc4ccccc4C3(C)C)cn2)C(F)(F)F)CC1 (single isomer, unassigned) [Example 132] | 250 | 1370 | –
16 | CN1CCC(C(=O)N(C)[C@@H](c2ccc(NC3Cc4ccccc4C3(C)C)cn2)C(F)(F)F)CC1 (single isomer, unassigned) [Example 133] | 150 | 600 | –
17 | CN(C(=O)C1CNC(=O)CO1)[C@@H](c1ccc(NC2Cc3ccccc3C2(C)C)cn1)C(F)(F)F (single isomer, unassigned) [Example 134] | 160 | 710 | –
18 | CN(C(=O)C1CNC(=O)CO1)[C@@H](c1ccc(NC2Cc3ccccc3C2(C)C)cn1)C(F)(F)F (single isomer, unassigned) [Example 136] | 36 | 310 | –
19 | CN(C(=O)C1CNC(=O)CO1)[C@@H](c1ccc(NC2Cc3ccccc3C2(C)C)cn1)C(F)(F)F (single isomer, unassigned) [Example 137] | 150 | 1250 | –

Row | Compound | IC50 [1] [nM] | IC50 ([2]; 48 hours) [nM] | IC50 ([2]; Homo sapiens, Jurkat, 48 h) [nM]
20 | CN(C(=O)C1CN2CCC1CC2)[C@@H](c1ccc(NC2Cc3ccccc3C2(C)C)cn1)C(F)(F)F (single isomer, unassigned) [Example 140] | 180 | – | 1270
21 | CN(C(=O)C1CN2CCC1CC2)[C@@H](c1ccc(NC2Cc3ccccc3C2(C)C)cn1)C(F)(F)F (single isomer, unassigned) [Example 141] | 210 | 1230 | –
22 | CN(C(=O)N1CCS(=O)(=O)CC1)[C@@H](c1ccc(NC2Cc3ccccc3C2(C)C)cn1)C(F)(F)F (single isomer, unassigned) [Example 142] | 200 | – | 1790
23 | CN1CCC(C(=O)N(C)[C@@H](c2ccc(NC3Cc4ccccc4C3(C)C)nc2)C(F)(F)F)CC1 (single isomer, unassigned) [Example 144] | 210 | – | 2630
24 | CN(C(=O)C1CCNCC1)[C@@H](c1ccc(NC2Cc3ccccc3C2(C)C)cn1)C(F)(F)F (single isomer, unassigned) [Example 146] | 110 | – | 480
25 | CN(C(=O)[C@H]1C[C@@]2(CCN2C)C1)[C@@H](c1ccc(NC2Cc3ccccc3C2(C)C)cn1)C(F)(F)F (single isomer, unassigned) [Example 156] | 170 | 1720 | –
26 | CN(C(=O)[C@H]1C[C@@]2(CCN2C)C1)[C@@H](c1ccc(NC2Cc3ccccc3C2(C)C)cn1)C(F)(F)F (single isomer, unassigned) [Example 157] | 64 | 770 | –
27 | CN(C(=O)[C@H]1C[C@]2(CCN2C)C1)[C@@H](c1ccc(NC2Cc3ccccc3C2(C)C)cn1)C(F)(F)F (single isomer, unassigned) [Example 159] | 140 | – | 1160
28 | CN(C(=O)C1COCC(=O)N1)[C@@H](c1ccc(NC2Cc3ccccc3C2(C)C)cn1)C(F)(F)F (single isomer, unassigned) [Example 164] | 33 | – | 150
29 | CN(C(=O)C1CC2(CNC(=O)OC2)C1)[C@@H](c1ccc(NC2Cc3ccccc3C2(C)C)nc1)C(F)(F)F (single isomer, unassigned) [Example 174] | 70 | – | 890
30 | CN(C(=O)C1CC2(CNC(=O)OC2)C1)[C@@H](c1ccc(NC2Cc3ccccc3C2(C)C)nc1)C(F)(F)F (single isomer, unassigned) [Example 175] | 54 | 810 | –
31 | CCN(C(=O)C1CCS(=O)(=O)CC1)[C@@H](c1ccc(NC2Cc3ccccc3C2(C)C)cn1)C(F)(F)F (single isomer, unassigned) [Example 188] | 47 | 650 | –
32 | CCN(C(=O)C1CCS(=O)(=O)CC1)[C@@H](c1ccc(NC2Cc3ccccc3C2(C)C)cn1)C(F)(F)F (single isomer, unassigned) [Example 189] | 91 | 3000 | –
33 | CN(C(=O)C1CCS(=O)(=O)CC1)[C@@H](c1ccc(NC2Cc3cccc(C(F)(F)F)c3C2)cn1)C(F)(F)F (single isomer, unassigned) [Example 191] | 26 | – | 740
34 | CC(=O)N1CCC[C@H]1C(=O)N(C)[C@@H](c1ccc(N[C@H]2Cc3ccccc3C2(C)C)cn1)C(F)(F)F (single isomer, unassigned) [Example 194] | 53 | – | 630
35 | CCc1cccc2c1CC(Nc1ccc([C@H](N(C)C(=O)C3CCS(=O)(=O)CC3)C(F)(F)F)nc1)C2 (single isomer, unassigned) [Example 198] | 78 | – | 1200
36 | CN(C(=O)C1CCS(=O)(=O)CC1)[C@@H](c1ccc(N[C@H]2Cc3ccc(Cl)cc3C2)cn1)C(F)(F)F (single isomer, unassigned) [Example 199] | 73 | – | 290
37 | CN(C(=O)[C@H]1C[C@@]2(COC(=O)N2)C1)[C@@H](c1ccc(NC2Cc3ccccc3C2(C)C)cn1)C(F)(F)F (single isomer, unassigned) [Example 208] | 27 | – | 250
